Molecular target: Recombinant human Mat2a (Homo sapiens, UniProt P31153)
Test: Determination of Mat2A activity (384 well absorbance-based assay, Biomol Green)
Format: biochemical
Conditions: 12.5 nM Mat2A, 100 μM ATP and Methionine, 2% DMSO, 120 minutes at RT, absorbance at 635 nm
Summary of the method: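 Recombinant human Mat2A (12.5 nM) was preincubated with compound for 15 min at RT in HEPES pH 7.5 buffer with 2% DMSO. The reaction was started with 100 μM each of ATP and methionine and ran 120 min at RT. Phosphate was detected with Biomol Green by absorbance at 635 nm.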

Chain of Recombinant human Mat2a (P31153 whole entry): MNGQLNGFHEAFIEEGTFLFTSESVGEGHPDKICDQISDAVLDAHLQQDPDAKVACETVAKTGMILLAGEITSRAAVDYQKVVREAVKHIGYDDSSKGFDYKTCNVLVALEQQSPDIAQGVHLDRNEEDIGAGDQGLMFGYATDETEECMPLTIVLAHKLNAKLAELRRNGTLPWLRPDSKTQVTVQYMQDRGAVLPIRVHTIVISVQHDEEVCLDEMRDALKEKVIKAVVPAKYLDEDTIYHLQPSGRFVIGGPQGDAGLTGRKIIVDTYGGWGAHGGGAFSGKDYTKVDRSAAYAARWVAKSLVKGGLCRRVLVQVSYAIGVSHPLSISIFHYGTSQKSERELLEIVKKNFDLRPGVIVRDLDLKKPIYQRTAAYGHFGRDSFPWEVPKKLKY

Row | Compound | IC50 [µM]
1 | Nc1nc(=O)n([C@H]2CCCOC23CC3)c2nc(C3CC3)ccc12 [Example 142, 4-amino-7-cyclopropyl-1-[(8S)-4-oxaspiro[2.5]octan-8-yl]pyrido[2,3-d]pyrimidin-2-one] | < 0.013
2 | N#Cc1cccc(-n2c(=O)nc(N)c3ccc(C4CC4)nc32)c1Cl [Example 143, 3-(4-amino-7-cyclopropyl-2-oxopyrido[2,3-d]pyrimidin-1 (2H)-yl)-2-chlorobenzonitrile] | < 0.013
3 | Cc1ccccc1-n1c(=O)nc(N)c2ccc(OC(F)F)cc21 [Example 144, 4-amino-7-(difluoromethoxy)-1-(o-tolyl)quinazolin-2 (1H)-one] | < 0.013
4 | Nc1nc(=O)n(-c2ccc(F)c(F)c2)c2nc(C3CC3)ccc12 [Example 147, 4-amino-7-cyclopropyl-1-(3,4-difluorophenyl)pyrido[2,3-d]pyrimidin-2 (1H)-one] | 0.031
5 | Nc1nc(=O)c(-c2ccccc2Cl)c2cc(C(F)(F)F)ccn12 [Example 149, 1-amino-4-(2-chlorophenyl)-6-(trifluoromethyl)pyrido[1,2-c]pyrimidin-3-one] | 0.024
6 | Nc1nc(=O)n(C2CCCOC23CC3)c2cc(OC(F)F)ccc12 (stereo not drawn) [Example 150, 4-amino-7-(difluoromethoxy)-1-(4-oxaspiro[2.5]octan-8-yl)quinazolin-2 (1H)-one] | 0.13
7 | N#Cc1cccc(-n2c(=O)nc(N)c3ccc(C4CC4)nc32)c1 [Example 151, 3-(4-amino-7-cyclopropyl-2-oxopyrido[2,3-d]pyrimidin-1 (2H)-yl)benzonitrile] | < 0.013
8 | Nc1nc(=O)n(-c2cccc(Cl)c2)c2nc(C3CC3)ccc12 [Example 152, 4-amino-1-(3-chlorophenyl)-7-cyclopropylpyrido[2,3-d]pyrimidin-2 (1H)-one] | 0.014
9 | CCNc1ccc2c(N)nc(=O)n(-c3ccccc3C)c2c1 [Example 153, 4-amino-7-(ethylamino)-1-(o-tolyl)quinazolin-2-one] | 0.017
10 | Nc1nc(=O)n(-c2cc(F)ccc2F)c2nc(C3CC3)ccc12 [Example 154, 4-amino-7-cyclopropyl-1-(2,5-difluorophenyl)pyrido[2,3-d]pyrimidin-2 (1H)-one] | 0.02
11 | Nc1nc(=O)n(-c2ccc(F)cc2Cl)c2nc(C3CC3)ccc12 [Example 155, 4-amino-1-(2-chloro-4-fluorophenyl)-7-cyclopropylpyrido[2,3-d]pyrimidin-2 (1H)-one] | 0.016
12 | Nc1nc(=O)n(-c2cc(F)ccc2Cl)c2nc(C3CC3)ccc12 [Example 156, 4-amino-1-(2-chloro-5-fluorophenyl)-7-cyclopropylpyrido[2,3-d]pyrimidin-2-one] | 0.021
13 | Nc1nc(=O)n(-c2cccc3c2CCN3)c2nc(C3CC3)ccc12 [Example 157, 4-amino-7-cyclopropyl-1-(2,3-dihydro-1H-indol-4-yl)pyrido[2,3-d]pyrimidin-2-one] | 0.015
14 | Cc1c(C#N)cccc1-n1c(=O)nc(N)c2ccc(OC(F)(F)F)cc21 [Example 158, 3-[4-amino-2-oxo-7-(trifluoromethoxy)quinazolin-1-yl]-2-methylbenzonitrile] | 0.025
15 | Cc1c(F)cccc1-n1c(=O)nc(N)c2ccc(OC(F)(F)F)cc21 [Example 159, 4-amino-1-(3-fluoro-2-methylphenyl)-7-(trifluoromethoxy)quinazolin-2-one] | 0.019
16 | Nc1nc(=O)n(-c2cccc3c2CCO3)c2cc(OC(F)(F)F)ccc12 [Example 160, 4-amino-1-(2,3-dihydro-1-benzofuran-4-yl)-7-(trifluoromethoxy)quinazolin-2-one] | 0.018
17 | Nc1nc(=O)n(-c2cccc(Cl)c2F)c2nc(C3CC3)ccc12 [Example 161, 4-amino-1-(3-chloro-2-fluorophenyl)-7-cyclopropylpyrido[2,3-d]pyrimidin-2-one] | < 0.013
18 | Nc1nc(=O)n(-c2cccc3c2CCO3)c2nc(C(F)(F)F)ccc12 [Example 162, 4-amino-1-(2,3-dihydrobenzofuran-4-yl)-7-(trifluoromethyl)pyrido[2,3-d]pyrimidin-2 (1H)-one] | < 0.013
19 | Nc1nc(=O)n(-c2cccc(OC(F)(F)F)n2)c2nc(C3CC3)ccc12 [Example 163, 4-amino-7-cyclopropyl-1-[6-(trifluoromethoxy)pyridin-2-yl]pyrido[2,3-d]pyrimidin-2-one] | 0.031
20 | Nc1nc(=O)n(-c2cccc3[nH]ccc23)c2nc(C3CC3)ccc12 [Example 164, 4-amino-7-cyclopropyl-1-(1H-indol-4-yl)pyrido[2,3-d]pyrimidin-2-one] | < 0.013
21 | Cc1c(F)cccc1-n1c(=O)nc(N)c2ccc(C(F)(F)F)nc21 [Example 165, 4-amino-1-(3-fluoro-2-methylphenyl)-7-(trifluoromethyl)pyrido[2,3-d]pyrimidin-2 (1H)-one] | < 0.013
